The text below walks through data of US20250092003A1, “LIPID COMPOUND, COMPOSITION CONTAINING SAME AND USE” (SOUTH CHINA UNIVERSITY OF TECHNOLOGY, priority 2022, published 2025).

Test [1] concerns melanoma (B16F10-Luc) cell line capable of stably expressing firefly luciferase (Luc). Nature of the test: siLuc transfection by lipid nanoparticles into B16F10-Luc cells, firefly luciferase expression. Particulars: for siLuc transfection efficiency: lipid nanoparticles (lipid compound:DSPC:cholesterol:DSPE-PEG 38:10:50:2), siRNA 50 ng/well, N/P ratios 4:1, 8:1 and 16:1, 24 h after transfection. The class given is cell-based.
Protocol: B16F10-Luc cells were inoculated into a 96-well cell culture plate. On the next day, transfection was performed when the cells grew to about 80%.
The mother solutions were stored in a refrigerator at −20° C., diluted as needed during use, and then mixed at a molar ratio of 38:10:50:2 (lipid compounds:DSPC:cholesterol:DSPE-PEG). The siLuc was dissolved in a citrate buffer solution (pH-4), where a volume of the citrate buffer solution was two times the volume of an ethanol-lipid mixture obtained above. Finally, the citrate buffer solution containing siLuc (pH=4) and the ethanol-lipid mixture were quickly and fully mixed and then shaken and incubated at room temperature for 30 min for self-assembly to form lipid nanoparticles. The assembled lipid nanoparticles were added to the 96-well cell culture plate containing the B16F10-Luc for transfection, respectively. Before the transfection, a culture solution in the culture plate was sucked out, and 80 μL of a new culture medium was added, where an added amount of the siRNA was 50 ng/well. Nitrogen-phosphorus ratios (N/P ratio) of the protonable lipid compounds to the siRNA were 4:1, 8:1 and 16:1, respectively.
Positive control group: The siLuc was transfected by Lipo2000, a commercial transfection reagent. Transfection was performed according to an operating instruction of the Lipo2000. 50 ng of the siLuc was added to 5 μL of Opti-MEM, and 0.3 μL of the Lipo2000 was added to another 50 μL of Opti-MEM. Finally, an siRNA Opti-MEM solution was added to a Lipo2000 Opti-MEM solution, evenly mixed, incubated at room temperature for 15 min, and then added to a 96-well cell culture plate. Before the transfection, a culture solution in the culture plate was sucked out, and 80 μL of a new culture medium was added, where an added amount of the siRNA was 50 ng/well.
Negative control group: Only the B16F10-Luc cells were used without transfection.
After the transfection was performed for 24 h, the cells were lysed and subjected to centrifugation to remove cell debris and contents, a supernatant was taken, a firefly luciferase substrate was added, and an expression amount of firefly luciferase was determined so as to compare the siLuc transfection efficiency of the synthesized lipid compounds.
The mother solutions were stored in a refrigerator at −20° C., diluted as needed during use, and then mixed at a molar ratio of 38:10:50:2 (lipid compounds:DSPC:cholesterol:DSPE-PEG). The siLuc was dissolved in a citrate buffer solution (pH=4), where a volume of the citrate buffer solution was two times the volume of an ethanol-lipid mixture obtained above. […]

For a further test, the system named is 293T cell line. Description: plasmid DNA (pDNA-GFP-Luc) transfection by lipid nanoparticles into 293T cells. As to conditions: pDNA-GFP-Luc 80 ng/well, N/P ratios 8:1, 16:1 and 32:1, 48 h after transfection. The class given is cell-based.

In the case of `CCCCCCCCCCCC(=O)OCC(O)CN(CCCN1CCCC1)CC(O)COC(=O)CCCCCCCCCCC` (centres unmarked) [A2-C12], the siLuc transfection efficiency result in test [1] is recorded as “about 95%”.
Regarding `CCCCCCCCCCCC(=O)OCC(O)CN(CCN(CCN(CC(O)COC(=O)CCCCCCCCCCC)CC(O)COC(=O)CCCCCCCCCCC)CCN(CC(O)COC(=O)CCCCCCCCCCC)CC(O)COC(=O)CCCCCCCCCCC)CC(O)COC(=O)CCCCCCCCCCC` (centres unmarked) [A12-C12], the “inhibition of gene expression of the firefly luciferase” value in test [1] (lipid nanoparticles with siLuc, N/P ratios 4:1 to 32:1, 24 h after transfection) is reported as “almost completely inhibited”. For the same molecule, the “plasmid transfection efficiency (firefly luciferase expression) compared with PEI” value in the test on 293T cell line is reported as “equivalent to that of the commercial reagent PEI”.
`CCCCCCCCCCCC(=O)OCC(O)CN(CCCN(C)C)CC(O)COC(=O)CCCCCCCCCCC` (centres unmarked) [A1-C12]: in test [1], the siLuc transfection efficiency result is “about 95%”.
On the same count and under the same terms, with `CCCCCCCCCCCCCCCC(=O)OCC(O)CN(CCCN1CCCC1)CC(O)COC(=O)CCCCCCCCCCCCCCC` (centres unmarked) [A2-C16] the entry was “about 95%”.
